Measured values from ChEMBL document CHEMBL1201862, “PubChem BioAssay data set” (2004).
The source made the active and inactive calls.

How the values were obtained:
[1] = HEK293 cell cytotoxicity, dose response, cytotoxicity control, cherry-picks, set 5 (AID 1053117); type: functional, cell-based
[2] = molecular target: T1, COUP transcription factor 2 (Homo sapiens, UniProt P24468); test: Luminescence-based cell-based high throughput dose response assay to identify inhibitors of COUP-TFII (NR2F2).; type: functional;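 further: HEK293 cells transiently cotransfected with COUP-TFII expression vector and reporter; luciferase reporter luminescence driven by COUP-TFII from the pX2-168 reporter plasmid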
T1 sequence (P24468 whole entry): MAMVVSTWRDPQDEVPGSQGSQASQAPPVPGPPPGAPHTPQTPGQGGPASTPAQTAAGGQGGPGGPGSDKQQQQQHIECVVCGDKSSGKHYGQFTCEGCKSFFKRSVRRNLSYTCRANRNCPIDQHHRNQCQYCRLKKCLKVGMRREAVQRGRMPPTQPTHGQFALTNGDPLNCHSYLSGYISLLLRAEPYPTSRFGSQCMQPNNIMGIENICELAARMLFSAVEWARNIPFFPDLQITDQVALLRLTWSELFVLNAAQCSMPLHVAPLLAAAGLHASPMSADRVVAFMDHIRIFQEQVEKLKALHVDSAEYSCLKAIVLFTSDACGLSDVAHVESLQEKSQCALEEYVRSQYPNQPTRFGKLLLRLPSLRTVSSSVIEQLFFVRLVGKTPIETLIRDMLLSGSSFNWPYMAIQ

[3] = molecular target: Tumor necrosis factor (Homo sapiens, UniProt P01375); test: TNFa-triggered NF-kB activation inhibitors, SAR follow-up, cell-based, revised (AID 2337); type: functional
[4] = molecular target: T2, Nucleotide-binding oligomerization domain-containing protein 1 (Homo sapiens, UniProt Q9Y239); test: NOD1 signaling inhibitors, SAR follow-up, revised (AID 2333); type: functional
T2 sequence (Q9Y239 whole entry): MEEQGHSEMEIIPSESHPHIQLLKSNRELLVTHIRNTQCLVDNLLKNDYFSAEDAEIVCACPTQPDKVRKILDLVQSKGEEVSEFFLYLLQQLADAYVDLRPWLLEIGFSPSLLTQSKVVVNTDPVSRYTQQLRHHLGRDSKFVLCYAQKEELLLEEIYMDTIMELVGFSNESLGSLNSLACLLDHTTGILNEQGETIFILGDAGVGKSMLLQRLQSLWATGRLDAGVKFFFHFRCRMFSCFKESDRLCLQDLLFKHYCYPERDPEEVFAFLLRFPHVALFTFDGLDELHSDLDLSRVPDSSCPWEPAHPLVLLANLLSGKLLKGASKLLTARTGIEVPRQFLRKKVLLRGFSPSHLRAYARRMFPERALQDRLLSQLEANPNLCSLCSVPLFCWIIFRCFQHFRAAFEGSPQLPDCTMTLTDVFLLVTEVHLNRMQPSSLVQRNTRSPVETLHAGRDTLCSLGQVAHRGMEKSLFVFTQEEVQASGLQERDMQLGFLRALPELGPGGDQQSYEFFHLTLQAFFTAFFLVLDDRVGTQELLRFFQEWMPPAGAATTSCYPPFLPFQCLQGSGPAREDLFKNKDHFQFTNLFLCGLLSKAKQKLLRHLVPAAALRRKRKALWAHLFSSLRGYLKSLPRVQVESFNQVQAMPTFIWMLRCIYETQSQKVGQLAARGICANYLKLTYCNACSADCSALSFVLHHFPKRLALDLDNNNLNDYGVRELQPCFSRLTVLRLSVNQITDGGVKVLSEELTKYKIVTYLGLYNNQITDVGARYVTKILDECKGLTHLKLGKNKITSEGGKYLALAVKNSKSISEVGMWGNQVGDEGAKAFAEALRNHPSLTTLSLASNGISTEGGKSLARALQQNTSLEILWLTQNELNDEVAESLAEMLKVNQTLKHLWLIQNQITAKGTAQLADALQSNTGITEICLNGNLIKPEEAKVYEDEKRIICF

[5] = system: HEK293; test: cells; settings: Homo sapiens;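 further: cells exposed to compound for 14 hours overnight before viability readout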
[6] = molecular target: Galanin receptor type 3 (Homo sapiens, UniProt O60755); test: Fluorescence-based cell-based primary high throughput dose response assay to identify antagonists of the Galanin Receptor 3 (GalR3).; type: functional
[7] = system: INS1; test: beta cell apoptosis inhibitors, cytokine rescue, dose response, luminescence, retest (AID 449756); type: functional, cell-based; settings: Rattus norvegicus;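 further: cell death triggered by IL-1 beta plus TNF-alpha plus IFN-gamma mixture; protective hits raise ATP signal compared with cytokine alone wells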
[8] = cells; type: functional, cell-based; settings: HEK-CNG
[9] = molecular target: Paired box protein Pax-8 (Homo sapiens, UniProt Q06710); test: inhibitors of PAX8-driven TPO luciferase reporter, dose response, RMG-I cells, cherry-pick (AID 687027); type: functional, cell-based;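 further: luciferase reporter driven by Pax8 target thyroperoxidase promoter measured by SteadyGlo luminescence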
[10] = cytotoxicity in OVCAR8 ovarian cancer cells, dose response, PAX8 project, cell-based, plate reader, dry powder samples (AID 743197); type: functional; settings: OVCAR-8
[11] = NIH:OVCAR-3 ovarian cancer cell cytotoxicity, dose response, PAX8 inhibitor project, plate reader, dry powder samples (AID 743044); type: functional, cell-based
[12] = IGROV1 ovarian cancer cell cytotoxicity, dose response, PAX8 inhibitor project, plate reader, dry powder samples (AID 743043); type: functional, cell-based; settings: IGROV-1
[13] = Luminescence-based cell-based high throughput dose response assay to identify activators of the DAF-12 from the parasite S. stercoralis (ssDAF-12).; type: functional
[14] = T. cruzi growth inhibition in host cells, dose response, cell-based, plate reader, dry powder, set 2 (AID 652275); type: functional
[15] = molecular target: Ras and Rab interactor 1/Tyrosine-protein kinase ABL1 (Homo sapiens, UniProt P00519+Q13671); type: functional;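 further: biochemical TR-FRET dose-response test measuring inhibition of binding between Rin1 and Abl proteins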
[16] = cells; type: functional, cell-based
[17] = cells; type: functional, cell-based; remark: listed apart in the source

Chain of Ras and Rab interactor 1/Tyrosine-protein kinase ABL1 (P00519 whole entry): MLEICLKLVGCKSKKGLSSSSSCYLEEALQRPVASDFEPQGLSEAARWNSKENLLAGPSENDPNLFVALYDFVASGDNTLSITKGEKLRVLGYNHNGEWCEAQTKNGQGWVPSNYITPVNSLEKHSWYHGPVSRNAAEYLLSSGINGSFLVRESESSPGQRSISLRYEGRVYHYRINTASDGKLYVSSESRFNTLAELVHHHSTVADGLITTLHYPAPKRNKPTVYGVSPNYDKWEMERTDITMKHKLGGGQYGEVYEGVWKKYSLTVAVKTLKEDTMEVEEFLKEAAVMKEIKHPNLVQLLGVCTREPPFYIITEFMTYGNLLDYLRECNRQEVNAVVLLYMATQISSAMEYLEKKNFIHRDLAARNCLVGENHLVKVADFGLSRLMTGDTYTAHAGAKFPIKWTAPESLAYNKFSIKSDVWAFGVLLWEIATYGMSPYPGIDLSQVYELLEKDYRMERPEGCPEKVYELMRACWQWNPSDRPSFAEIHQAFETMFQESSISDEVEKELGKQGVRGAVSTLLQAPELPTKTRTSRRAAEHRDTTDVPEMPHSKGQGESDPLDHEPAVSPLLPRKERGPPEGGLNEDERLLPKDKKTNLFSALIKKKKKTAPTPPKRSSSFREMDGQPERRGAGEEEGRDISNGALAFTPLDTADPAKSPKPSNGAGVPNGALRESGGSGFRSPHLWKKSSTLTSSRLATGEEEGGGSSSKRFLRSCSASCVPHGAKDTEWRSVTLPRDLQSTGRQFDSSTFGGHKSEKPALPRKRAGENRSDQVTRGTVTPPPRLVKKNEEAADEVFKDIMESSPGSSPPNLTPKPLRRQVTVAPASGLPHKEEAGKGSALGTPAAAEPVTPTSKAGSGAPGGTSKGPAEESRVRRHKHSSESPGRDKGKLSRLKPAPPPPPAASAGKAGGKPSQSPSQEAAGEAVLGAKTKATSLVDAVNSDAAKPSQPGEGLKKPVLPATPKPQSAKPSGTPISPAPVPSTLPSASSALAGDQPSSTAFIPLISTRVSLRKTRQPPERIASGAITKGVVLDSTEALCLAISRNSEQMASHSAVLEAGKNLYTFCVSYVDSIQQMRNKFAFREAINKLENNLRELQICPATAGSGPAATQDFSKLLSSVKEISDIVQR
Chain of Ras and Rab interactor 1/Tyrosine-protein kinase ABL1 (Q13671 whole entry): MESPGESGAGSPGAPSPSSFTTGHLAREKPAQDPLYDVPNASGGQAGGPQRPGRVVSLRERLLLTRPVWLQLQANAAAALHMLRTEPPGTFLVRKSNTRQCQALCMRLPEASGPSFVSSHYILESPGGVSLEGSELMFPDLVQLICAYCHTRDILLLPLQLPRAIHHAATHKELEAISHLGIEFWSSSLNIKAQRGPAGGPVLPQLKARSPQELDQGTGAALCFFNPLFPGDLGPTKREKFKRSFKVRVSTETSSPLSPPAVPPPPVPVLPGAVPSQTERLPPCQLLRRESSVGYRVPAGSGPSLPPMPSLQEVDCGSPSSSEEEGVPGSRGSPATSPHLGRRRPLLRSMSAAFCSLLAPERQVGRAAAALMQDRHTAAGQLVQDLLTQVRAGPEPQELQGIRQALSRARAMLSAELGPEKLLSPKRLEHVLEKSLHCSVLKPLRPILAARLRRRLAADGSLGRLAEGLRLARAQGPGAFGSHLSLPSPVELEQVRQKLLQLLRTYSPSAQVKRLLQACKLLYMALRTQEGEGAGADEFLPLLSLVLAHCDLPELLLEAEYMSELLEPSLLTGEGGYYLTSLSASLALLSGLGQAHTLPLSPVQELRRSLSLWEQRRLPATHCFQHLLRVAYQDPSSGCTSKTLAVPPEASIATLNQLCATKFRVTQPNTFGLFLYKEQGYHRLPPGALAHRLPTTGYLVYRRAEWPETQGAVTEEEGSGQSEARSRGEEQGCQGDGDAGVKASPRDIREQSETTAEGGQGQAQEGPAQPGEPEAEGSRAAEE
Chain of Paired box protein Pax-8 (Q06710 whole entry): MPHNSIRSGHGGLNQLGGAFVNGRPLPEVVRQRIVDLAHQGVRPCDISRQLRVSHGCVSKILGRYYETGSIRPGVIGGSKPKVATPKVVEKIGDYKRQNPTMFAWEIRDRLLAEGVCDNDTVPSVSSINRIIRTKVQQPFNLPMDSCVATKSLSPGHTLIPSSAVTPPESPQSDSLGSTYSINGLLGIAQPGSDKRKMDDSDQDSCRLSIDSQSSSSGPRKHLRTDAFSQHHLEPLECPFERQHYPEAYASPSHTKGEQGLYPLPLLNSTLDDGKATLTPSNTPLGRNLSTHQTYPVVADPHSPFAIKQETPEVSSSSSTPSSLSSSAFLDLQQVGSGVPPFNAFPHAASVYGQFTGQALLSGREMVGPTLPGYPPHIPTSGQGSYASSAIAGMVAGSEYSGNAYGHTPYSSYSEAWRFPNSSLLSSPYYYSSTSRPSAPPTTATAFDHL
Chain of Tumor necrosis factor (P01375 whole entry, the tested form may be a part): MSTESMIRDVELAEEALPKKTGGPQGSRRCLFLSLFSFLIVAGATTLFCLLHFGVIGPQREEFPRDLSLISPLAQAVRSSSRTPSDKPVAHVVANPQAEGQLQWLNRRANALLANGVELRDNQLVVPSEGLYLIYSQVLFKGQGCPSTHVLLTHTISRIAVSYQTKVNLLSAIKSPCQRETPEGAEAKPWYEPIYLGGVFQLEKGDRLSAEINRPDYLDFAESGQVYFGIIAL
Chain of Galanin receptor type 3 (O60755 whole entry): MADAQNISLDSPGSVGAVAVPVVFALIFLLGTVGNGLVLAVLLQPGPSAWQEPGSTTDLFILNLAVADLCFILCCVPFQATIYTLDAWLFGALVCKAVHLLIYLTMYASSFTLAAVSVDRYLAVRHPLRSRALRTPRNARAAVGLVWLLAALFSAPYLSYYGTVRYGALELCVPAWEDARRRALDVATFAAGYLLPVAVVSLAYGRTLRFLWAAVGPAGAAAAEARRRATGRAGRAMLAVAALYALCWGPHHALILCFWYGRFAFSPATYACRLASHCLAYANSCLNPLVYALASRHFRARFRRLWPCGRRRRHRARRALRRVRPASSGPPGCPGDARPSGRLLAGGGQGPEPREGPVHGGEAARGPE

In the case of `C[C@H]1CN([C@@H](C)CO)C(=O)c2cc(-c3ccccc3)cnc2O[C@@H]1CN(C)C(=O)c1cccc(F)c1`, the AC50 [1] is reported as > 52 µM (inactive).

In the case of `Cn1nccc1C(=O)NC1CCCc2c1cnn2-c1ccc(C(C)(C)C)cc1` (stereo not drawn), the IC50 [2] is reported as 1.25 µM (active), the IC50 [3] is reported as 0.2 µM (active) and the IC50 [4] is reported as 0.232 µM (active). For the same compound, the IC50 [5] was 16.4 µM (active), the IC50 [6] was 0.143 µM (active) and the AC50 [7] was 1.62 µM (active). For the same compound, the EC50 [8] was > 29.9 µM (inactive).

In the case of `C[C@H](CO)N1C[C@H](C)[C@@H](CN(C)Cc2ccc(C(F)(F)F)cc2)OCCCC[C@H](C)Oc2ccc(NS(=O)(=O)c3ccc(Cl)cc3)cc2C1=O`, the AC50 [9] is reported as 7.37 µM (active), the AC50 [10] is reported as 34.1 µM (active) and the AC50 [11] is reported as 14.5 µM (active). The AC50 [12] was 21.7 µM (active).

With `CCOc1ccc(NC(=O)Cc2cccc3ccccc23)c([N+](=O)[O-])c1` the IC50 [13] was > 67.5 µM (inactive).

In the case of `CN(C)CC#Cc1cccc(-c2nc(C(=O)NCCCN3CCOCC3)cc3c2[C@H](CCO)N([S+]([O-])C(C)(C)C)C3)c1` (stereo partly drawn), the AC50 [14] is reported as 1.24 µM (active).

With `COc1ccccc1OCc1ccc(C(=O)N2CCN(C(=O)c3ccco3)CC2)cc1` the IC50 [15] was 36 µM (inactive).

For `Oc1ccc(Cl)cc1/C=N/CCc1ccccc1`, the EC50 [16] was > 29.9 µM (inactive) and the IC50 [17] was 9.79 µM (active).

With `COC(=O)c1ccc(COC(=O)C23CC4CC(CC(O)(C4)C2)C3)o1` the IC50 [15] was 17.4 µM (inactive).
